{"source": "patent US20020136785A1", "about": "“Ginseng berry extracts and pharmaceutical compositions from ginseng berry for the treatment of type 2 diabetes and obesity” (priority 2000, published 2002)", "key": {"[1]": {"system": "cultured bovine adrenal chromaffin cells", "details": "cultured bovine adrenal chromaffin cells (Kudo et al., 1998); cited from earlier work"}, "B16-BL6 melanoma cells": {"system": "B16-BL6 melanoma cells", "details": "B16-BL6 melanoma cells (Wakabayashi et al., 1998); cited from earlier work"}, "[2]": {"details": "Hasegawa et al., 1995; cited from earlier work"}, "[3]": {"biological_target": "T1, nuclear glucocorticoid receptor (Homo sapiens, UniProt P04150)", "T1 sequence (P04150 1-777)": "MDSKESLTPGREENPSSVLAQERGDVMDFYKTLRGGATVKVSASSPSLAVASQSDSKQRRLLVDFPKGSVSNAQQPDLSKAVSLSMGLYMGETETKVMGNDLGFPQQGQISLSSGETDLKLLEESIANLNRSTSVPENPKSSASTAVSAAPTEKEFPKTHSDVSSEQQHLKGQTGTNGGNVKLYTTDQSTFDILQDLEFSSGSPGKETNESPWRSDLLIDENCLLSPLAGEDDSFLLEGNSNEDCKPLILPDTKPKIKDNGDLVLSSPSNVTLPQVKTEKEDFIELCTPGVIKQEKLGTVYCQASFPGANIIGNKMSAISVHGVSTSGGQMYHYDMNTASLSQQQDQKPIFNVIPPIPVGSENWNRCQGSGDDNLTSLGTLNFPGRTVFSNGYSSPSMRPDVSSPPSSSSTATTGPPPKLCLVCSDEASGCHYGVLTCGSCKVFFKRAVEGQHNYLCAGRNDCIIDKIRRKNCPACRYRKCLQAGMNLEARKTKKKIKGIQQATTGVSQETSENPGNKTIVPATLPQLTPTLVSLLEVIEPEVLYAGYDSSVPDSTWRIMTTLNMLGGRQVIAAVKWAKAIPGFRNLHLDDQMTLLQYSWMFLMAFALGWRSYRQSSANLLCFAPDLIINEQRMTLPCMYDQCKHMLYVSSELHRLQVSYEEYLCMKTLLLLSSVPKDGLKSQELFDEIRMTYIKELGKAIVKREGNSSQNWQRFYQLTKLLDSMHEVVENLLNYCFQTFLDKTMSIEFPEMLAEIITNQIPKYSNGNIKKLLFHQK", "details": "Lee et al., 1997; Chung et al., 1998; cited from earlier work"}, "[4]": {"details": "Odani et al., 1983; cited from earlier work"}, "C57BL/6J ob/ob mice": {"system": "C57BL/6J ob/ob mice", "test": "Fasting blood glucose level in ob/ob mice", "format": "in vivo", "details": "20 mg/kg daily IP", "text": "(§1) Male C57BL/6J ob/ob mice and their lean littermates (+/?) were obtained from Jackson Laboratory (Bar Harbor, Me.). In this obese, insulin-resistant mouse model, obesity is due to a mutation in the obese gene that encodes for leptin. […] The heterozygous mice are lean and normoglycemic. It is believed that the development of hyperglycemia in the ob/ob mouse is a consequence of epistatic interaction of the obesity mutation with diabetes-susceptibility genes. Adult animals at 10-18 weeks of age were used. Mice were housed in environmentally controlled conditions with a 12-h light/dark cycle and had free access to standard rodent pellet food, except when fasted before some experiments.\n(§2) Animals were treated with Panax ginseng berry extract, Panax quinquefolius berry extract, ginsenoside Re or a polysaccharides fraction from Panax quinquefolius and the fasting blood glucose levels were measured. Fasting blood glucose levels were measured after animals were fasted for 4 hr (starting from 9:00AM), on Day 0 (before treatment), Day 5 (during treatment), and Day 12 (last day of treatment). Blood glucose levels were determined in tail blood samples at 1:00PM using a Glucose Analyzer (Hemocue AB, Angelholm, Sweden)."}, "[5]": {"system": "lean littermates (+/?) of C57BL/6J ob/ob mice", "test": "Fasting blood glucose level in lean littermates of ob/ob mice", "format": "in vivo", "details": "after treatment with ginsenoside Re", "text": "as §1, §2"}, "ob/ob mice": {"system": "ob/ob mice", "test": "Intraperitoneal glucose tolerance test (IPGTT) in ob/ob mice", "format": "in vivo", "details": "20 mg/kg, 12 days, compared to vehicle-treated ob/ob mice", "protocol": "(§3) Animals were treated with Panax ginseng berry extract, Panax quinquefolius berry extract, ginsenoside Re, or a polysaccharide fraction from Panax quinquefolius . IPGTT was performed on Day 0 and Day 12. On the days of the test, animals were fasted for 4 hr (starting from 9:00AM) followed by an IP administration of glucose (2 g/kg). Blood glucose levels were determined in tail blood samples at 0 (prior to glucose administration), and 30, 60 and 120 min after glucose administration."}, "lean mice": {"system": "lean mice", "test": "Intraperitoneal glucose tolerance test (IPGTT) in lean mice", "format": "in vivo", "details": "20 mg/kg, 12 days", "protocol": "as §3"}, "[6]": {"test": "Body weight of ob/ob mice", "format": "in vivo", "protocol": "The average body weight of adult ob/ob or db/db mice is almost twice that of their lean littermates. Animals were treated with Panax ginseng berry extract, Panax quinquefolius berry extract, ginsenoside Re, or a polysaccharide fraction from Panax quinquefolius and the body weights were determined."}, "[7]": {"system": "streptozotocin-induced diabetic rats", "details": "streptozotocin-induced diabetic rats (Yokozawa et al., 1985); cited from earlier work"}, "[8]": {"system": "hepatic tissue of streptozotocin-induced diabetic rats", "details": "streptozotocin-induced diabetic rats (Yokozawa et al., 1991); cited from earlier work"}, "albumin mRNA": {"system": "albumin mRNA", "details": "streptozotocin-induced diabetic rats (Yokozawa et al., 1996); cited from earlier work"}, "[9]": {"details": "Karikura et al., 1991; cited from earlier work"}}}
{"smiles": "CC(C)=CCCC(C)(O)C1CCC2(C)C1C(O)CC1C3(C)CCC(O)C(C)(C)C3C(OC3OC(CO)C(O)C(O)C3OC3OC(C)C(O)C(O)C3O)CC12C", "note": "[20(S) ginsenoside Rg2]", "values": [{"measurement": "acetylcholine-evoked secretion of catecholamines", "setting": "[1]", "result": "inhibit"}, {"measurement": "inhibitory effect compared with the other C-20 isomer", "setting": "[1]", "result": "greater inhibitory effect"}]}
{"smiles": "CC(C)=CCC[C@](C)(O[C@@H]1O[C@H](CO)[C@@H](O)[C@H](O)[C@H]1O)[C@H]1CC[C@]2(C)[C@@H]1[C@H](O)C[C@@H]1[C@@]3(C)CC[C@H](O)C(C)(C)[C@@H]3CC[C@]12C", "note": "[compound K]", "values": [{"measurement": "apoptosis", "setting": "B16-BL6 melanoma cells", "result": "induce apoptosis"}, {"measurement": "cytotoxicity of antineoplastic drugs", "setting": "[2]", "result": "increase the cytotoxicity"}]}
{"smiles": "CC(C)=CCC[C@](C)(O[C@@H]1O[C@H](CO)[C@@H](O)[C@H](O)[C@H]1O)[C@H]1CC[C@]2(C)[C@@H]1[C@H](O)C[C@@H]1[C@@]3(C)CC[C@H](O)C(C)(C)[C@@H]3[C@@H](O[C@@H]3O[C@H](CO)[C@@H](O)[C@H](O)[C@H]3O)C[C@]12C", "note": "[Rg1]", "values": [{"measurement": "ligand of the nuclear glucocorticoid receptor", "setting": "[3]", "result": "functional ligand"}, {"measurement": "absorption after ingestion", "setting": "[4]", "result": "poorly absorbed"}]}
{"smiles": "CC(C)=CCC[C@](C)(O[C@@H]1O[C@H](CO)[C@@H](O)[C@H](O)[C@H]1O)[C@H]1CC[C@]2(C)[C@@H]1[C@H](O)C[C@@H]1[C@@]3(C)CC[C@H](O)C(C)(C)[C@@H]3[C@@H](O[C@@H]3O[C@H](CO)[C@@H](O)[C@H](O)[C@H]3O[C@@H]3O[C@@H](C)[C@H](O)[C@@H](O)[C@H]3O)C[C@]12C", "note": "[ginsenoside Re]", "values": [{"measurement": "fasting blood glucose", "setting": "C57BL/6J ob/ob mice; Day 5, 4 hr fast", "result": "188 ± 9.2", "unit": "mg/dL"}, {"measurement": "fasting blood glucose", "setting": "C57BL/6J ob/ob mice; Day 12, 4 hr fast", "result": "180 ± 10.8", "unit": "mg/dL"}, {"measurement": "change of fasting blood glucose", "setting": "[5]", "result": "did not change sizably"}, {"measurement": "blood glucose levels at 60 min and 120 min following glucose administration, IPGTT", "setting": "ob/ob mice", "result": "significantly decreased"}, {"measurement": "glucose tolerance, IPGTT", "setting": "lean mice", "result": "not statistically affected"}, {"measurement": "body weight", "setting": "[6]; 20 mg/kg group, Day 0", "result": "53.1 ± 1.4", "unit": "g"}, {"measurement": "body weight", "setting": "[6]; 20 mg/kg, Day 5", "result": "52.9 ± 1.5", "unit": "g"}, {"measurement": "body weight", "setting": "[6]; 20 mg/kg, Day 12", "result": "54.7 ± 1.7", "unit": "g"}]}
{"smiles": "CC(C)=CCC[C@](C)(O[C@@H]1O[C@H](CO[C@@H]2OC[C@H](O)[C@H](O)[C@H]2O)[C@@H](O)[C@H](O)[C@H]1O)[C@H]1CC[C@]2(C)[C@@H]1[C@H](O)C[C@@H]1[C@@]3(C)CC[C@H](O[C@@H]4O[C@H](CO)[C@@H](O)[C@H](O)[C@H]4O[C@@H]4O[C@H](CO)[C@@H](O)[C@H](O)[C@H]4O)C(C)(C)[C@@H]3CC[C@]12C", "note": "[ginsenoside Rb2]", "values": [{"measurement": "blood glucose levels", "setting": "[7]", "result": "significant decrease"}, {"measurement": "ATP levels in hepatic tissue", "setting": "[8]", "result": "increased ATP levels"}, {"measurement": "albumin mRNA in the liver", "setting": "albumin mRNA", "result": "increased albumin mRNA"}]}
{"smiles": "CC(C)=CCC[C@](C)(O[C@@H]1O[C@H](CO[C@@H]2O[C@H](CO)[C@@H](O)[C@H](O)[C@H]2O)[C@@H](O)[C@H](O)[C@H]1O)[C@H]1CC[C@]2(C)[C@@H]1[C@H](O)C[C@@H]1[C@@]3(C)CC[C@H](O[C@@H]4O[C@H](CO)[C@@H](O)[C@H](O)[C@H]4O[C@@H]4O[C@H](CO)[C@@H](O)[C@H](O)[C@H]4O)C(C)(C)[C@@H]3CC[C@]12C", "note": "[Rb1]", "values": [{"measurement": "absorption after ingestion", "setting": "[4]", "result": "poorly absorbed"}, {"measurement": "metabolism by intestinal flora", "setting": "[9]", "result": "hydrolyzed to compound K"}]}
{"smiles": "CC(C)=CCC[C@@](C)(O)[C@H]1CC[C@]2(C)[C@@H]1[C@H](O)C[C@@H]1[C@@]3(C)CC[C@H](O)C(C)(C)[C@@H]3[C@@H](O[C@@H]3O[C@H](CO)[C@@H](O)[C@H](O)[C@H]3O[C@@H]3O[C@@H](C)[C@H](O)[C@@H](O)[C@H]3O)C[C@]12C", "note": "[20(R) ginsenoside Rg2]", "values": [{"measurement": "acetylcholine-evoked secretion of catecholamines", "setting": "[1]", "result": "inhibit"}]}
